Data set [1] concerns HepG2. Briefly: Induction of apoptosis in human HepG2 cells at 5 uM incubated for 72 hrs by Annexin V-FITC/PI staining based flow cytometry. It counts as functional, cell-based.
A short description of data set [2]: Cytotoxicity against human MRC5 cells assessed as inhibition of cell viability incubated for 72 hrs by MTT assay. It counts as toxicity, cell-based.
In data set [3] the test system is HepG2. Briefly: Anticancer activity against human HepG2 cells assessed as inhibition of cell viability incubated for 72 hrs by MTT assay. In kind it is functional, cell-based. Conditions: HepG2, 72 h. Background: Tetrazolium assays rely on reduction of a dye to a coloured formazan, in cell work by metabolically active cells.
Data set [4] in a line: Selectivity index, ratio of IC50 for cytotoxicity against human MRC5 cells to IC50 for anticancer activity against human HepG2 cells. In kind it is toxicity, cell-based. Conditions: MRC5 cells versus HepG2 cells, read-out: Ratio IC50.
Data set [5] concerns HepG2. Briefly: Potency index, ratio of Sorafenib IC50 to test compound IC50 for anticancer activity against human HepG2 cells assessed as inhibition of cell viability incubated for 72 hrs by MTT assay. It counts as functional.

Active and inactive are the calls of the source. No cut-off for these calls is given here.

Take `CNC(=O)c1cc(Oc2ccc(NC(=O)Nc3ccc(Cl)c(C(F)(F)F)c3)cc2)ccn1` [SORAFENIB]: the result in data set [1] was Active. In data set [2], the IC50 at 72 h worked out at 11100 nM. Take `O=C(Nc1cccc(OCc2cn(-c3ccccc3Br)nn2)c1)Nc1ccc(Cl)c(C(F)(F)F)c1`: in data set [3], the IC50 was 2810 nM. `O=C(Nc1cccc(OCc2cn(-c3cccc(Cl)c3)nn2)c1)Nc1ccc(Cl)c(C(F)(F)F)c1`: the IC50 in data set [3] was 2020 nM. Turning to `O=C(Nc1cccc(OCc2cn(-c3cccc(C(F)(F)F)c3)nn2)c1)Nc1ccc(Cl)c(C(F)(F)F)c1`, the IC50 in data set [3] was determined as 1270 nM.

For the compound `CCc1ccc(-n2cc(COc3cccc(NC(=O)Nc4ccc(Cl)c(C(F)(F)F)c4)c3)nn2)cc1`, the half-maximal inhibitory concentration (IC50) in data set [3] worked out at 1950 nM. Still for that read-out and setting: to `O=C(Nc1cccc(OCc2cn(-c3cccc(F)c3)nn2)c1)Nc1ccc(Cl)c(C(F)(F)F)c1` belongs 2120 nM; to `CCc1cccc(-n2cc(COc3cccc(NC(=O)Nc4ccc(Cl)c(C(F)(F)F)c4)c3)nn2)c1`, 37900 nM. As to `O=C(Nc1cccc(OCc2cn(-c3ccccc3C(F)(F)F)nn2)c1)Nc1ccc(Cl)c(C(F)(F)F)c1`, the selectivity ratio in data set [4] was 3.55. For the same compound, the IC50 in data set [3] came to 2320 nM. Moreover, the IC50 at 72 h in data set [2] stood at 8230 nM. On to `N#Cc1ccccc1-n1cc(COc2cccc(NC(=O)Nc3ccc(Cl)c(C(F)(F)F)c3)c2)nn1`, for which the selectivity ratio in data set [4] came out at 8.89. For the same compound, the IC50 in data set [3] is 1970 nM. The half-maximal inhibitory concentration (IC50) at 72 h in data set [2] came to 17500 nM. For the compound `Cc1ccc(-n2cc(COc3cccc(NC(=O)Nc4ccc(Cl)c(C(F)(F)F)c4)c3)nn2)cc1`, in data set [3], the IC50 was 5430 nM.

As to `O=C(Nc1cccc(OCc2cn(-c3ccccc3F)nn2)c1)Nc1ccc(Cl)c(C(F)(F)F)c1`, the IC50 in data set [3] was found to be 1520 nM. In the case of `O=C(Nc1cccc(OCc2cn(-c3cccc(Br)c3)nn2)c1)Nc1ccc(Cl)c(C(F)(F)F)c1`, the selectivity ratio in data set [4] came out at 11.5. Also, the outcome in data set [1] was Active. For the same compound, the 50% inhibitory concentration (IC50) in data set [3] worked out at 1040 nM. Moreover, the “Ratio IC50” value in data set [5] worked out at 5. In addition, the IC50 at 72 h in data set [2] turned out to be 11900 nM. As for `CC(C)c1ccccc1-n1cc(COc2cccc(NC(=O)Nc3ccc(Cl)c(C(F)(F)F)c3)c2)nn1`, in data set [3], the 50% inhibitory concentration (IC50) was determined as 1900 nM. In the case of `O=C(Nc1cccc(OCc2cn(-c3ccccc3I)nn2)c1)Nc1ccc(Cl)c(C(F)(F)F)c1`, the selectivity ratio in data set [4] is 7.61. Further, the half-inhibitory concentration (IC50) in data set [3] is 2870 nM. Also, the IC50 at 72 h in data set [2] came out at 21900 nM.

Consider `COc1ccccc1-n1cc(COc2cccc(NC(=O)Nc3ccc(Cl)c(C(F)(F)F)c3)c2)nn1`, for which, in data set [3], the half-inhibitory concentration (IC50) is 11300 nM. Same read-out and setting: with `COc1ccc(-n2cc(COc3cccc(NC(=O)Nc4ccc(Cl)c(C(F)(F)F)c4)c3)nn2)cc1` the figure was 4680 nM. Still for that read-out and setting: to `O=C(Nc1cccc(OCc2cn(-c3ccccc3Cl)nn2)c1)Nc1ccc(Cl)c(C(F)(F)F)c1` belongs 1960 nM. Take `O=C(Nc1cccc(OCc2cn(-c3ccccc3)nn2)c1)Nc1ccc(Cl)c(C(F)(F)F)c1`: the selectivity ratio in data set [4] was determined as 10.3. Moreover, the IC50 in data set [3] is 1780 nM. Also, in data set [5], the “Ratio IC50” value was determined as 2.8. For the same compound, the IC50 at 72 h in data set [2] was 18400 nM. For `O=C(Nc1cccc(OCc2cn(-c3ccc(I)cc3)nn2)c1)Nc1ccc(Cl)c(C(F)(F)F)c1`, the selectivity ratio in data set [4] turned out to be 2.55. For the same compound, the IC50 in data set [3] was found to be 2690 nM. Also, in data set [2], the IC50 at 72 h was 6840 nM. Turning to `CCc1ccccc1-n1cc(COc2cccc(NC(=O)Nc3ccc(Cl)c(C(F)(F)F)c3)c2)nn1`, the IC50 in data set [3] was found to be 3530 nM. `O=C(Nc1cccc(OCc2cn(-c3ccc(F)cc3)nn2)c1)Nc1ccc(Cl)c(C(F)(F)F)c1`: the selectivity ratio in data set [4] was 3.52. Further, in data set [3], the IC50 was 1350 nM. In data set [2], the IC50 at 72 h worked out at 4740 nM. For `CC(C)c1cccc(-n2cc(COc3cccc(NC(=O)Nc4ccc(Cl)c(C(F)(F)F)c4)c3)nn2)c1` the same measures were 6.58, 3250 nM and 21400 nM. For the compound `Cc1cccc(-n2cc(COc3cccc(NC(=O)Nc4ccc(Cl)c(C(F)(F)F)c4)c3)nn2)c1`, in data set [3], the concentration for half-maximal inhibition (IC50) came to 7270 nM. Consider `N#Cc1ccc(-n2cc(COc3cccc(NC(=O)Nc4ccc(Cl)c(C(F)(F)F)c4)c3)nn2)cc1`, for which, in data set [3], the 50% inhibitory concentration (IC50) was 2980 nM.

For the compound `N#Cc1cccc(-n2cc(COc3cccc(NC(=O)Nc4ccc(Cl)c(C(F)(F)F)c4)c3)nn2)c1`, the selectivity ratio in data set [4] was 1.07. Also, the half-inhibitory concentration (IC50) in data set [3] was found to be 2760 nM. For the same compound, the IC50 at 72 h in data set [2] was found to be 2960 nM. On the same counts, the results for `COc1cccc(-n2cc(COc3cccc(NC(=O)Nc4ccc(Cl)c(C(F)(F)F)c4)c3)nn2)c1` are 6.55, 1310 nM and 8570 nM. Regarding `O=C(Nc1cccc(OCc2cn(-c3ccc(C(F)(F)F)cc3)nn2)c1)Nc1ccc(Cl)c(C(F)(F)F)c1`, the half-inhibitory concentration (IC50) in data set [3] came out at 1800 nM. The same measure, in the same setting: with `O=C(Nc1cccc(OCc2cn(-c3ccc(Cl)cc3)nn2)c1)Nc1ccc(Cl)c(C(F)(F)F)c1` the figure was 2490 nM. Consider `O=C(Nc1cccc(OCc2cn(-c3ccc(Br)cc3)nn2)c1)Nc1ccc(Cl)c(C(F)(F)F)c1`, for which the selectivity ratio in data set [4] amounted to 4.03. Also, the 50% inhibitory concentration (IC50) in data set [3] came out at 2730 nM. Moreover, the IC50 at 72 h in data set [2] is 11000 nM. Consider `CC(C)c1ccc(-n2cc(COc3cccc(NC(=O)Nc4ccc(Cl)c(C(F)(F)F)c4)c3)nn2)cc1`, for which the 50% inhibitory concentration (IC50) in data set [3] is 2470 nM.

`O=C(Nc1cccc(OCc2cn(-c3cccc(I)c3)nn2)c1)Nc1ccc(Cl)c(C(F)(F)F)c1`: the IC50 in data set [3] was 4780 nM. Consider `Cc1ccccc1-n1cc(COc2cccc(NC(=O)Nc3ccc(Cl)c(C(F)(F)F)c3)c2)nn1`, for which, in data set [3], the IC50 was determined as 3440 nM.

As a reminder, the IC50 is the concentration needed to halve the response being measured.

The values are drawn from ChEMBL document CHEMBL5214985, “meta-Ureidophenoxy-1,2,3-triazole hybrid as a novel scaffold for promising HepG2 hepatocellular carcinoma inhibitors: Synthesis, biological evaluation and molecular docking studies” (Bioorg Med Chem, 2022).
